Among the data in patent publication US8022099B2, “N-benzyl pyrrolidine derivatives” (Hoffmann-La Roche Inc., priority 2008, dated 2011) are Ki values, retold here.

Structures are written as SMILES. pKi: −log10 of the molar value.

Broadly, the pKi is the negative decadic logarithm of the Ki, by convention in mol/L.

This test has as its target T1, human NK3 receptor (Homo sapiens, UniProt P29371).
T1 construct: expressed in transfected cells; host or cells: HEK293 cells (transient expression), membrane preparation
T1 sequence (P29371 1-465): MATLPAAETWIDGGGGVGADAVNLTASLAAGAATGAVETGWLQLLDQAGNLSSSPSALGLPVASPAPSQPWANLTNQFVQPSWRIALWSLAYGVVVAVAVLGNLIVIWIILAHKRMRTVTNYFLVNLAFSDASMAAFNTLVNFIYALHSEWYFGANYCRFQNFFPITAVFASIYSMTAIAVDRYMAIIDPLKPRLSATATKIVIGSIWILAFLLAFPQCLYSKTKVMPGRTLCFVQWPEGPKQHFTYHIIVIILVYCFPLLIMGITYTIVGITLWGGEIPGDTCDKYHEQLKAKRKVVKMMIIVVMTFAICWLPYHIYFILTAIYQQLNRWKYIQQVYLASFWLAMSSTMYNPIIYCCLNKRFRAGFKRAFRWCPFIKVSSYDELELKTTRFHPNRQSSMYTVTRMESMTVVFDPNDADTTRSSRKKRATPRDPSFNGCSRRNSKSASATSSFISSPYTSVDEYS
Description: [3H]SR142801 competition binding assay. To be noted: hNK3 receptor binding, [3H]SR142801, membranes from HEK293 cells transiently expressing recombinant human NK3 receptor. An outline of the steps: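 Membranes from HEK293 cells transiently expressing human NK3 were incubated 75 min at RT with [3H]SR142801 at its KD and inhibitor (0.0003-10 μM) in Tris-HCl pH 7.4/MnCl2/phosphoramidon/BSA. Nonspecific binding used 10 μM SB222200. Ki from Hill-fitted IC50 via Cheng-Prusoff, duplicate determinations.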
Turning to `CN(Cc1ccc(C(F)(F)F)c(F)c1)[C@H]1CN(C(=O)CCCCC(=O)c2ccccn2)C[C@@H]1c1ccc(Cl)c(Cl)c1` (racemic) [Example 95, 1-{(3SR,4RS)-3-(3,4-Dichloro-phenyl)-4-[(3-fluoro-4-trifluoromethyl-benzyl)-methyl-amino]-pyrrolidin-1-yl}-6-pyridin-2-yl-hexane-1,6-dione], the pKi is 7.61. The same measure for `CN(Cc1ccc(C(F)(F)F)c(F)c1)[C@H]1CN(C(=O)CCCCC(N)=O)C[C@@H]1c1ccc(Cl)c(Cl)c1` (racemic) [Example 98, 6-{(3SR,4RS)-3-(3,4-Dichloro-phenyl)-4-[(3-fluoro-4-trifluoromethyl-benzyl)-methyl-amino]-pyrrolidin-1-yl}-6-oxo-hexanoic acid amide]: 7.28; for `CN(Cc1ccc(C(F)(F)F)c(F)c1)[C@H]1CN(C(=O)CCCCC#N)C[C@@H]1c1ccc(Cl)c(Cl)c1` (racemic) [Example 102, 6-{(3SR,4RS)-3-(3,4-Dichloro-phenyl)-4-[(3-fluoro-4-trifluoromethyl-benzyl)-methyl-amino]-pyrrolidin-1-yl}-6-oxo-hexanenitrile]: 7.15. For the molecule `CC(=O)NC1CCN(CCCCC(=O)N2C[C@H](c3ccc(Cl)c(Cl)c3)[C@@H](N(C)Cc3ccc(C(F)(F)F)c(F)c3)C2)CC1` (racemic) [Example 105, N-[1-(5-{(3SR,4RS)-3-(3,4-Dichloro-phenyl)-4-[(3-fluoro-4-trifluoromethyl-benzyl)-methyl-amino]-pyrrolidin-1-yl}-5-oxo-pentyl)-piperidin-4-yl]-acetamide], the pKi is 7.21. With `CN(Cc1ccc(C(F)(F)F)c(F)c1)[C@H]1CN(C(=O)CCCCN2CCOCC2)C[C@@H]1c1cccc(Cl)c1` (racemic) [Example 107, 1-{(3SR,4RS)-3-(3-Chloro-phenyl)-4-[(3-fluoro-4-trifluoromethyl-benzyl)-methyl-amino]-pyrrolidin-1-yl}-5-morpholin-4-yl-pentan-1-one], the pKi is 7.09. To `CN(Cc1ccc(C(F)(F)F)c(F)c1)[C@H]1CN(C(=O)CN2CCOCC2)C[C@@H]1c1ccc(Cl)c(Cl)c1` (racemic) [Example 113, 1-{(3SR,4RS)-3-(3,4-Dichloro-phenyl)-4-[(3-fluoro-4-trifluoromethyl-benzyl)-methyl-amino]-pyrrolidin-1-yl}-2-morpholin-4-yl-ethanone] belongs 7.34; to `CN1CCN(CC(=O)N2C[C@H](c3ccc(Cl)c(Cl)c3)[C@@H](N(C)Cc3ccc(C(F)(F)F)c(F)c3)C2)CC1` (racemic) [Example 114, 1-{(3SR,4RS)-3-(3,4-Dichloro-phenyl)-4-[(3-fluoro-4-trifluoromethyl-benzyl)-methyl-amino]-pyrrolidin-1-yl}-2-(4-methyl-piperazin-1-yl)-ethanone], 7.40; to `CN(Cc1ccc(C(F)(F)F)c(F)c1)[C@H]1CN(C(=O)CN2CCN(S(C)(=O)=O)CC2)C[C@@H]1c1ccc(Cl)c(Cl)c1` (racemic) [Example 115, 1-{(3SR,4RS)-3-(3,4-Dichloro-phenyl)-4-[(3-fluoro-4-trifluoromethyl-benzyl)-methyl-amino]-pyrrolidin-1-yl}-2-(4-methanesulfonyl-piperazin-1-yl)-ethanone], 7.89. To `CN(Cc1ccc(C(F)(F)F)c(F)c1)[C@H]1CN(C(=O)CN2CCN(S(=O)(=O)N(C)C)CC2)C[C@@H]1c1ccc(Cl)c(Cl)c1` (racemic) [Example 116, 4-(2-{(3SR,4RS)-3-(3,4-Dichloro-phenyl)-4-[(3-fluoro-4-trifluoromethyl-benzyl)-methyl-amino]-pyrrolidin-1-yl}-2-oxo-ethyl)-piperazine-1-sulfonic acid dimethylamide] belongs 7.77. The same measure for `CN(C)CCN1CCN(CC(=O)N2C[C@H](c3ccc(Cl)c(Cl)c3)[C@@H](N(C)Cc3ccc(C(F)(F)F)c(F)c3)C2)CC1` (racemic) [Example 117, 1-{(3SR,4RS)-3-(3,4-Dichloro-phenyl)-4-[(3-fluoro-4-trifluoromethyl-benzyl)-methyl-amino]-pyrrolidin-1-yl}-2-[4-(2-dimethylamino-ethyl)-piperazin-1-yl]-ethanone]: 7.71.
